Experimental data taken from PMC7232172, “APETx-Like Peptides from the Sea Anemone Heteractis crispa, Diverse in Their Effect on ASIC1a and ASIC3 Ion Channels” (Toxins, 2020).
Read-outs that look alike come from different tables or passages of the source. Bridges are numbered along the chain shown (N, C = ends). Where no end group is shown, it is not given here.

What was measured:
human ASIC3 = conditions: simian-kidney-derived COS-7 cells; read-out: IC50, inhibition of human ASIC3; cited from earlier work
Description: (§1) Table 2 Electrophysiological activity of sea anemone toxins of structural class 1b on homomeric acid-sensing ion channels (ASICs). | column: ASIC3

rat ASIC3 channel [1] = molecular target: T1, rat ASIC3 channel (Rattus norvegicus, UniProt O35240); conditions: rat ASIC3, X. laevis oocytes according to footnote of Table 2; read-out: IC50, inhibition of ASIC3 (APETx2); cited from earlier work
T1 construct: expressed in transfected cells; host or cells: Xenopus laevis oocytes (cRNA injection)
T1 sequence (O35240 1-533): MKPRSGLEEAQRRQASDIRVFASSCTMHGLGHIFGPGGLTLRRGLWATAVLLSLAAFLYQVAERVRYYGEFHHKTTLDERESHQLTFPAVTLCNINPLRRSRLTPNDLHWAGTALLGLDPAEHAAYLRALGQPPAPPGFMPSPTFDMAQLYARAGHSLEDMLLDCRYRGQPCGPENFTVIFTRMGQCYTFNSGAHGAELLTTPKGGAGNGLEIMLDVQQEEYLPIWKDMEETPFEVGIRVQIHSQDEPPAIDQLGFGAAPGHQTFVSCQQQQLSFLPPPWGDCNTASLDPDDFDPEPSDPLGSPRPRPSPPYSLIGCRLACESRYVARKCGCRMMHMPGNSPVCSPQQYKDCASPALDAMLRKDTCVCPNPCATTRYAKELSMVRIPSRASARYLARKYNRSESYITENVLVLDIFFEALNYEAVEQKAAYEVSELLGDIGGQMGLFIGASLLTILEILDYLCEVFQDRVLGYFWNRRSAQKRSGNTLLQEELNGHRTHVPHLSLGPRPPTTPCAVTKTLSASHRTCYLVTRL
Description: as §1

ASIC1a = conditions: cited from earlier work; for effect on ASIC1a gating state: desensitization: ref 21, closed state: ref 13, 20, 22
Description: Animal toxins produced by spiders, snakes, and sea anemones are considered molecular instruments for the study of ASICs gating and promising drug precursors. […] Peptides from spiders and snakes inhibit mostly mammalian ASIC1a channels. […] Peptides Hcr 1b-3 and Hcr 1b-4, electrophysiologically examined in this study, are the closest homologues of Hcr 1b-1 and Hcr 1b-2 (78%–97% of identity) as well as APETx2 (46%–49% of identity) that are attributed to β-defensin-like peptides. […] (Table 2). Despite the absence of the crucial basic residue Arg17 [31] in the sequence ...

ASIC3 = conditions: cited from earlier work
[2] = cited from earlier work
Description: Similarly to other APETx-like peptides, HcrTxs form four-stranded antiparallel β-sheets cross-linked by three disulfide bridges (C1–C5, C2–C4, C3–C6). Conforming to the obtained models, the short α-helix (22-24 aa) of HcrTxs localized within the flexible region between the second and third strands (Figure 3a). Hcr 1b-2, -3, -4, and APETx2 are very basic peptides (theoretical pI being of 9.53, 9.23, 9.26, and 9.33, respectively). Basic-aromatic clusters play an important role in the formation of complexes between the ASIC channel and peptide toxins PcTx1, mambalgin- ...

NaV1.2 = system: NaV1.2; set-up: method as in PMID 22972919; conditions: cited from earlier work
NaV1.8 = system: NaV1.8; set-up: method as in PMID 22972919; conditions: cited from earlier work
hERG = system: hERG; set-up: method as in 2 sources, ref 31 = [31]; PMID 25337890; doi:10.1021/jm501400p; 31. Jensen J.E. Cristofori-Armstrong B. Anangi R. Rosengren K.J. Lau C.H.Y. Mobli M. Brust A. Alewood P.F. King G.F. Rash L.D. Understanding the molecular basis of toxin promiscuity: The analgesic sea ||| ref 33 = [33]; PMID 12815161; doi:10.1124/mol.64.1.59; 33. Diochot S. APETx1, a new toxin from the sea anemone anthopleura elegantissima, blocks voltage-gated human ether-a-go-go-related gene potassium channels Mol. Pharmacol. 2003 64 59 69 10.1124/mol.64; conditions: cited from earlier work
ASIC1b = conditions: cited from earlier work
Description: (§2) It is noteworthy that to increase the current through the ASICs it takes an order of magnitude higher concentration of toxins than to inhibit it. […] No ASIC3 ...

ASIC2a = conditions: cited from earlier work
Description: as §2

KV3.1 = system: KV3.1; set-up: method as in PMID 9506974; conditions: cited from earlier work
KV3.4 = system: KV3.4; set-up: method as in PMID 16177043; conditions: cited from earlier work
NaV1.7 = system: NaV1.7; set-up: method as in PMID 22442564; conditions: TTX-sensitive NaV; read-out: EC50, NaV1.7 potentiation; cited from earlier work
TTX-resistant NaV = system: TTX-resistant NaV; set-up: method as in PMID 22442564; conditions: cited from earlier work
rat ASIC1a channel = molecular target: T2, rat ASIC1a channel (Rattus norvegicus, UniProt P55926); assay: Two-electrode voltage clamp, homomeric ASIC1a currents in Xenopus laevis oocytes; format: cell-based; conditions: for IC50: X. laevis oocytes, pH drop 7.8 to 5.5 (legend of Figure 4: from 7.4), peptide applied up to 15 s before, logistic fit, read-out: IC50, inhibition of rASIC1a current; for IC50 / A (response value at maximal inhibition, % of control), rASIC1a: mean ± SD, 5 cells; for A (response value at maximal inhibition, % of control), rASIC1a: fit parameter, pH drop to 5.5
T2 construct: expressed in transfected cells; host or cells: Xenopus laevis oocytes (cRNA injection)
T2 sequence (P55926 1-526): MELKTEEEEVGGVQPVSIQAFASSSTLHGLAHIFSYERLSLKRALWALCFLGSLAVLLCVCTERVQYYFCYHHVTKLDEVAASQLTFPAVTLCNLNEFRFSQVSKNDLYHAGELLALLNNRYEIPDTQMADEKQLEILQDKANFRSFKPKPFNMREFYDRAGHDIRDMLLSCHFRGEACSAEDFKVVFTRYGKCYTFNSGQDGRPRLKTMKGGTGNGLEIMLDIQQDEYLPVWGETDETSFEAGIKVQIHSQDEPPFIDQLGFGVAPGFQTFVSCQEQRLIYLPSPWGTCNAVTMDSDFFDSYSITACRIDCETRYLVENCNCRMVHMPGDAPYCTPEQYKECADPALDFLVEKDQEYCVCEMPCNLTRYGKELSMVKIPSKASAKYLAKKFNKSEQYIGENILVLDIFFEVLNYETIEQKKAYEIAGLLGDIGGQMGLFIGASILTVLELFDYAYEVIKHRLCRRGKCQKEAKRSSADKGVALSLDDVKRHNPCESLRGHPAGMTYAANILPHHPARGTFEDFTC
Description: (§3) The study of the pharmacological profile of the Hcr 1b-3 and Hcr 1b-4 peptides from H. crispa was carried out on two major ion channel subtypes, ASIC1a and ASIC3. Homomeric ASIC1a channels expressed in X. laevis oocytes were activated by a rapid pH drop from 7.8 to 5.5 in 15 s after peptide application. To analyze the effect of HcrTxs on the transient component of the ASIC3 current, the channels were activated by rapid extracellular acidification from pH 7.8 to 4.0, but effects on the sustained ASIC3 current were not studied. The inhibitory activity of three class 1b sea anemone toxins, APETx2, Hcr 1b-1, and Hcr 1b-2, towards ASICs was previously assayed in electrophysiological experiments (Table 2). In addition, we previously reported that the Hcr 1b-3 and Hcr 1b-4 peptides inhibited about 54% and 80% of the ASIC1a current, respectively.
(§4) Animal care and animal experiments were performed following the protocol approved by the Animal Care and Use Committee of the Shemyakin-Ovchinnikov Institute of Bioorganic Chemistry, Approval Code: 267/2018; Approval Date: 2 October 2018. RAS. Rat ASIC1a and ASIC3 channels were expressed in Xenopus laevis oocytes after injection of 2.5–10 ng of cRNA, as previously described. After injection oocytes were kept for 2–3 days at 19 °C and then up to 5 days at the temperature of 15–16 °C in sterile ND96 medium (96 mM NaCl, 2 mM KCl, 1.8 mM CaCl2, 1 mM MgCl2, 5 mM HEPES titrated to pH 7.4 with NaOH supplemented with 50 μg/mL of gentamycin). Two-electrode voltage clamp recordings were performed using GeneClamp 500 amplifier (Axon Instruments, Foster City, CA, USA). The data were filtered at 100 Hz and digitized at 1000 Hz by an AD converter L780 (LCard, Moscow, Russia) using in-house software. The solutions were applied to a cell chamber (volume 75 μL). The laminar flow of an external solution of ND96 (pH 7.8) was used at a rate of 1 mL/min. ASIC1a and ASIC3 were activated by a short pH drop from 7.8 to 5.5 or to 4.0 (10 mM MES or 10 mM acetic acid was used as the buffer solution, respectively) in supplementary 0.1% BSA solution. Peptides were applied for up to 15 s before the activation impulse. A value of currents inhibition was calculated as the ratio of the peak current amplitude when the peptide was applied to the average amplitude of the control peak currents before and after the peptide application and expressed as a percentage. To construct the concentration–response curves, a logistic equation was the following: y = ((1 – A)/(1 + ([C]/IC50) nH)) + A; where y is the relative value of current inhibition; C is the peptide concentration; IC50 is the half maximal inhibitory concentration; nH is the Hill coefficient; A is the response value at maximal inhibition (% of control). Calculations were carried out using software Origin 7.0. The data are presented as mean ± SD.

rat ASIC3 channel [3] = molecular target: T1, rat ASIC3 channel; assay: Two-electrode voltage clamp, homomeric ASIC3 transient currents in Xenopus laevis oocytes; format: cell-based; conditions: mean ± SD, 5 cells
Description: as §3
as §4, with “The data are presented as mean ± SD.” left out

[4] = system: models of cerebral ischemia, retinal stroke, optic nerve crush, and Parkinson’s disease; conditions: cited from earlier work
Description: Animal toxins produced by spiders, snakes, and sea anemones are considered molecular instruments for the study of ASICs gating and promising drug precursors. […] Peptides from spiders and snakes inhibit mostly mammalian ASIC1a channels. Two of ASIC1a inhibitors from spiders, ...

APETx2: toxin from sea anemone Anthopleura elegantissima, ASIC3 inhibitor (GTACSCGNSKGIYWFYRPSCPTDRGYTGSCRYFLGTCCTPAD; UniProt P61542 1-42, looked up)
IC50 (human ASIC3): 175 nM | IC50 (rat ASIC3 channel [1]): 63 nM | effect on ASIC1a current (ASIC1a): no effect | IC50 (ASIC3; species not given, read-out: IC50, inhibition of ASIC3): 63 nM | effect on ASIC3 sustained component (ASIC3; sustained current): no effect | theoretical pI [2]: 9.33 | IC50 (NaV1.2): 114 ± 25 nM | IC50 (NaV1.8): 55 ± 10 nM | IC50 (hERG): 1210 ± 50 nM | effect on ASIC1b current (ASIC1b): potentiate ASIC1b | effect on ASIC2a current (ASIC2a): potentiate ASIC1b and ASIC2a currents

BDS-I: toxin BDS-I from sea anemone A. sulcata (AAPCFCSGKPGRGDLWILRGTCPGGYGYTSNCYKWPNICCYPH; UniProt P11494 1-43, looked up)
IC50 (KV3.1): 47 nM | IC50 (KV3.4): 220 nM | EC50 (NaV1.7): ~3 nM | effect on TTX-resistant NaV (TTX-resistant NaV): weakly inhibits TTX-resistant NaV

GTPCDCYGYTGVYWFMLSRCPSGYGYNLSCHYFMGICCVKR (disulfide 4-37, 6-30, 20-38) [Hcr 1b-4]
IC50 (rat ASIC1a channel): 1250 ± 40 nM | A (response value at maximal inhibition, % of control), rASIC1a (rat ASIC1a channel): 13.7 ± 0.8% | EC50 (rat ASIC3 channel [3]; X. laevis oocytes, pH drop 7.8 to 4.0 (legend of Figure 4: from 7.4), potentiation, read-out: EC50, potentiation of transient rASIC3 current): 1530 ± 70 nM | A, rASIC3 potentiation (rat ASIC3 channel [3]; fit parameter, pH drop to 4.0): 207.78 ± 1.56%

GTPCKCHGYIGVYWFMLAGCPDGYGYNLSCPYFLGICCVKK (disulfide 4-37, 6-30, 20-38) [Hcr 1b-3]
inhibition at 120 µM (rat ASIC1a channel; Hcr 1b-3 at 120 μM, Hcr 1b-4 from concentration–response relationship, read-out: maximal inhibition of ASIC1a current): 70% | IC50 (rat ASIC1a channel): 4950 ± 190 nM | A (response value at maximal inhibition, % of control), rASIC1a (rat ASIC1a channel): 30.3 ± 0.7% | IC50 (rat ASIC3 channel [3]; X. laevis oocytes, pH drop 7.8 to 4.0 (legend of Figure 4: from 7.4), logistic fit, read-out: IC50, inhibition of transient rASIC3 current): 17000 ± 5800 nM | A (response value at maximal inhibition, % of control), rASIC3 (rat ASIC3 channel [3]; fit parameter, pH drop to 4.0): 26 ± 7%

PcTx1: spider toxin from Psalmopoeus cambridgei (EDCIPKWKGCVNRHGDCCEGLECWKRRRSFEVCVPKTPKT; ends and bridges not checked; cysteine pairing not given here; UniProt P60514 1-40, looked up)
effect on ASIC1a gating state (ASIC1a): promote desensitization of ASIC1a | effect on ASIC1b current (ASIC1b): potentiate ASIC1b | neuroprotection [4]: effective neuroprotectors

mambalgin-1: snake toxin from Dendroaspis polylepis (LKCYQHGKVVTCHRDMKFCYHNTGMPFRNLKLILQGCSSSCSETENNKCCSTDRCNK; UniProt P0DKR6 22-78, looked up)
effect on ASIC1a gating state (ASIC1a): stabilize the closed channels state
